8 compounds from patent EP0594890A1, “Polycyclic compounds, their preparation and their use as phosphodiesterases inhibitors” (TSUMURA & CO., priority 1992, dated 1994) can be followed below.

Each structure is given as a SMILES string.

One experiment relates to Bovine heart PDE. As to the kind of experiment: Bovine heart PDE inhibition activity. The note with it: substrate [³H]-cyclic AMP, 37°C for 30 minutes; compound concentration not given. The class given is biochemical. As for the experimental part:
[Bovine heart PDE inhibition activity]
Placed in a test tube were 50 µℓ of 0.5 M tris-HCl buffer (pH 7.5), 50 µℓ of 50 mM magnesium chloride, 50 µℓ of an enzyme solution (bovine heart, product of Boheringer Mannheim Yamanouchi Co., Ltd.), and a dimethylsulfoxide (DMSO) solution of the compound obtained in each example. Purified water was then added to a total volume of 450 µℓ, followed by incubation at 37°C for 3 minutes. Then, 50 µℓ or [³H]-cyclic AMP (0.01 mM, 1.0 x 1.0⁻⁶ dpm) as a substrate were added to initiate a reaction. After incubated at 37°C for 30 minutes, the test tube was heated for 3 minutes in a boiling water bath to terminate the reaction. After cooling, snake venem (500 µg) was added, followed by incubation at 37°C for 30 minutes. An ion-exchange resin ("Dowex-AG1-X8", trade name) was then added, followed by stirring and centrifugation. A supernatant was sampled and its radioactivity was measured by a liquid scintillation counter. Percent inhibition was determined in accordance with the following formula: [formula] where, C: Radioactivity when the compound in the example was not contained. S: Radioactivity when the compound in the example was added.

Experiment [1] relates to Platelet phosphodiesterase (PDE). Description: Platelet phosphodiesterase (PDE) inhibition activity in washed platelets. The class given is biochemical, rabbit. The note with it: 500 µM as the final concentration of the compound; washed platelet mixture; substrate [³H]-cyclic AMP, 37°C for 30 minutes. An excerpt: [Preparation of washed platelets]
A rabbit was held on its back on a fixing table and, under non-anesthesia, the leg femoral artery was cannulated. Next, 2 mℓ of a 3.8% aqueous solution of sodium citrate were placed in a 20-mℓ plastic syringe and 18 mℓ of the arterial blood were collected. The syringe was caused to fall down 2-3 times so that its contents were mixed. The above procedures were repeated using 3-4 syringes. The blood so collected was transferred into a plastic-made test tube and centrifuged at 800 rpm for 10 minutes at room temperature to settle blood cells, whereby an upper layer (PRP) was obtained. The PRP was next centrifuged at 3000 rpm for 10 minutes so that platelets were collected. After 12.3 mM tris-HCl buffer (pH 7.4) containing 0.137 M of NaCl, 1.54 mM of EDTA and 20 mM of glucose was added to the platelets and pipetting was conducted thoroughly, centrifugation was conducted at 3000 rpm for 10 minutes. The above procedures were repeated twice. Precipitated platelets were re-suspended in the above tris-HCl buffer at a platelet concentration of 6.5 x 10⁻⁶ platelets/µℓ. They were used as washed platelets in the subsequent experiments.
[Platelet phosphodiesterase (PDE) inhibition activity]
Placed in a test tube were 50 µℓ of 0.5 M tris-HCl buffer (pH 7.5), 50 µℓ of 50 mM magnesium chloride, 200 µℓ of the washed platelet mixture, and a dimethylsulfoxide (DMSO) solution of the compound (500 µM as the final concentration of the compound) obtained in each example. Purified water was added to a total volume of 450 µℓ, followed by incubation at 37°C for 3 minutes. Then, 50 µℓ off [³H]-cyclic AMP (0.01 mM, 1.0 x 1.0⁻⁶ dpm) as a substrate were added to initiate a reaction. […] A supernatant was sampled and its radioactivity was measured by a liquid scintillation counter. Percent inhibition was determined in accordance with the following formula: [formula] where, C: Radioactivity when the compound in the example was not contained. S: Radioactivity when the compound in the example was added.

Consider `COc1cc2c(c(OC)c1OC)-c1c(cc(OC)c(OC)c1OC)C[C@@H]1COC(=O)C1=C2` (single isomer, unassigned) [Test Compound 8], for which the “Inhibition rate (%) Bovine heart PDE” value with Bovine heart PDE is 36.3%.
The same measure, in the same setting: to `COc1cc2c(c(OC)c1OC)-c1c(cc(OC)c3c1OCO3)C[C@@H]1COC(=O)C1=C2` [Test Compound 3, (3aS,Rbiar)-3a,4-Dihydro-6,9,10,11-tetramethoxy-7,8-methylenedioxydibenzo[4,5:6,7)cycloocta[1,2-c]furan-1(3H)-one] belongs 19.5%; to `COc1cc2c(c(OC)c1OC)-c1c(cc(O)c(O)c1OC)C[C@@H]1COC(=O)C1=C2` [Test Compound 1, (3aS,Rbiar)-3a,4-Dihydro-6,7-dihydroxy-8,9,10,11-tetramethoxydibenzo[4,5:6,7)cycloocta[1,2-c]furan-1(3H)-one], 85.0%.
On to `COc1cc2c(c(OC)c1OC)-c1c(cc(OC)c3c1OCO3)C[C@H]1COC(=O)C1=C2` [Test Compound 5, (3aR,Sbiar)-3a,4-Dihydro-6,9,10,11-tetramethoxy-7,8-methylenedioxybenzo[4,5:6,7]cycloocta[1,2-c]furan-1(3H)-one], for which, in the experiment on Bovine heart PDE, the “Inhibition rate (%) Bovine heart PDE” value amounted to 2.8%. Moreover, the “Inhibition rate (%) Platelet PDE” value in experiment [1] came to 44.0%.
Turning to `COc1cc2c(c(OC)c1OC)-c1c(cc3c(c1OC)OCO3)C[C@@H]1COC(=O)C1=C2` (single isomer, unassigned) [Test Compound 2], the “Inhibition rate (%) Bovine heart PDE” value with Bovine heart PDE is on record as 0.0%. Also, in experiment [1], the “Inhibition rate (%) Platelet PDE” value was determined as 25.3%.
Consider `COc1cc2c(c(OC)c1OC)-c1c(cc(O)c(O)c1OC)CC1COC(=O)C1=C2` (stereo not drawn) [Test Compound 6, (3aRS,SRbiar)-3a,4-Dihydro-6,7-dihydroxy-8,9,10,11-tetramethoxydibenzo[4,5:6,7]cycloocta[1,2-c]-furan-1(3H)-one], for which the “Inhibition rate (%) Bovine heart PDE” value with Bovine heart PDE turned out to be 90.5%.
The same measure, in the same setting: to `COc1cc2c(c(OC)c1OC)-c1c(cc(OC)c(OC)c1OC)C[C@@H]1COC(=O)C1=C2` (single isomer, unassigned) [Test Compound 7] belongs 50.9%.
`COc1cc2c(c(OC)c1OC)-c1c(cc3c(c1OC)OCO3)C[C@@H]1COC(=O)C1=C2` (single isomer, unassigned) [Test Compound 4, (3as,Sbiar)-3a,4-Dihydro-8,9,10,11-tetramethoxy-6,7-methylenedioxydibenzo[4,5:6,7]cycloocta-[1,2-c]furan-1(3H)-one]: the “Inhibition rate (%) Bovine heart PDE” value in the experiment on Bovine heart PDE turned out to be 0.0%. Further, in experiment [1], the “Inhibition rate (%) Platelet PDE” value is listed as 23.1%.
